Measurements published in BindingDB's records for doi:10.1111/cbdd.12728 (Jawaharlal Nehru Centre For Advanced Scientific Research, 2016).
Several values for one entry are separate records, joined by “and”; a condition that tells them apart may be missing. Identical values can stand only once.

Biological target: Aurora kinase B (Homo sapiens, UniProt Q96GD4)
Assay: Isothermal Titration Calorimetry (ITC)
Conditions: pH 8; 25 °C
Experimental: Calorimetric titrations were performed in a Microcal iTC 200 microcalorimeter. Freshly purified 5 µM protein (Aurora A/B kinases) was titrated against 100 µM ligand (felodipine/ PTK66) in each case at 25 °C. Proteins and the ligandswere diluted in the final dialysate (20 mM Tris-HCl, pH 8.0, 0.2 mM EDTA and 100 mM KCl) against which the proteins were extensively dialysed to avoid any artefact due to the minor differences in buffer composition. DMSO content was kept exactly same in the cell (not exceeding 0.2% v/v) and syringe to rule out any interference due to DMSO content mismatch. All samples were thoroughly degassed prior to titration and were prepared with the same batch of dialysate to avoid any artefacts from the minor differences in buffer composition. Dilutions of 100 µM felodipine/PTK66 in dialysate containing equal percentage of DMSOserved as controls. The stirring speed was 300 rpm.

Chain of Aurora kinase B (Q96GD4 whole entry): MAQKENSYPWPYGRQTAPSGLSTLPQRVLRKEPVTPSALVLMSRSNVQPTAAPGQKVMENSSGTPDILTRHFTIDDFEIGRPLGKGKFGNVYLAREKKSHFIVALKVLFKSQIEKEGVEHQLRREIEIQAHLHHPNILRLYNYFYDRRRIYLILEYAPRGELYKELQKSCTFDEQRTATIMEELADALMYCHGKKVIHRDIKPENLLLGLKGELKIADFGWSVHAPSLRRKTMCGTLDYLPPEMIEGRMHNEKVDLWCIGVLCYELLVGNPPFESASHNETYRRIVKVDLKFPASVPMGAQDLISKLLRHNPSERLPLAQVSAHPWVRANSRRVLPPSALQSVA

Row | Kd | SMILES
1 | 1140 nM | CCOC(=O)C1=C(C)NC(C)=C(C(=O)OC)[C@H]1c1cccc(Cl)c1Cl [5-O-ethyl 3-O-methyl 4-(2,3-dichlorophenyl)-2,6-dimethyl-1,4-dihydropyridine-3,5-dicarboxylate]
2 | 1750 nM and 500 nM | Cc1cc(O)cc(O)c1/N=N/c1nccs1 [5-methyl-4-(2-thiazolylazo)resorcinol]
